Structures can show the parent of a compound that is named as a salt.

Assay type in all cases: biochemical
For test [1], the target named is T1, cathepsin L (Rattus norvegicus, UniProt P07154).
T1 construct: extracted from a rat liver and completely purified; from tissue; host or cells: rat liver
Kind of test: Determination of inhibition rate against cathepsin L. Conditions: for B/L: IC50 against cathepsin B divided by IC50 against cathepsin L; for IC50: cathepsin L from rat liver, substrate Z-Phe-Arg-MCA, pH 5.5, 30° C, 10 minutes. On the procedure:
(§1) Determination of inhibition rate against cathepsin L, B and H […]
(§2) Each cathepsin was diluted with a diluent (0.1% Brij 35) to adjust its concentration to 0.3 U (0.1 U: a concentration at which 1.0 nmol of MCA is released per minute at 37° C.). To 500 μl of this solution, were added 250 μl of an activator/buffer (340 mM sodium acetate, 60 mM acetic acid, 4 mM disodium EDTA; pH 5.5). After the mixture was incubated for 1 minute at 30° C., the sample solution of the predetermined concentration and […] of a substrate solution were added to conduct a reaction for 10 minutes.

Test [2] deals with T2, cathepsin H (Homo sapiens, UniProt P09668).
T2 construct: purchased Sigma Co
T2 sequence (P09668 98-335): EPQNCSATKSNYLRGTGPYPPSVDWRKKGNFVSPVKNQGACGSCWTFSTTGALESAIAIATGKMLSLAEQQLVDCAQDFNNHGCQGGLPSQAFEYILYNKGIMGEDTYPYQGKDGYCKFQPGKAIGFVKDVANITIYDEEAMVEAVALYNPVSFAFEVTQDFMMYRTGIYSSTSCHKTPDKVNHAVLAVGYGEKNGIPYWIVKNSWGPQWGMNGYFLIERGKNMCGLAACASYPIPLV
Kind of test: Determination of inhibition rate against cathepsin H. Conditions: purified cathepsin H (Sigma Co.); substrate Arg-MCA; pH 5.5; 30° C; 10 minutes. On the procedure:
Determination of inhibition rate against cathepsin L, B and H
A purified product was purchased from Sigma Co. and used as cathepsin H, and as a substrate thereof, Arg-MCA was used.
as §2

The target in test [3] is T3, cathepsin B (Rattus norvegicus, UniProt P00787).
T3 construct: extracted from a rat liver and completely purified; from tissue; host or cells: rat liver
Kind of test: Determination of inhibition rate against cathepsin B. The following applies: cathepsin B from rat liver; substrate Z-Arg-Arg-MCA; pH 5.5; 30° C; 10 minutes. On the procedure:
as §1, §2

T1 sequence (P07154 114-288 limits assumed): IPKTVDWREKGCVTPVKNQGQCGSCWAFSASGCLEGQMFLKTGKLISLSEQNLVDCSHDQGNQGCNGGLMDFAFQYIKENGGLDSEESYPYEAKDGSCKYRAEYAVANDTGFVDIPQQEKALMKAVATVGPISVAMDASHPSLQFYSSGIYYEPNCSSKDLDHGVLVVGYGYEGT
T1 sequence (P07154 291-334 limits assumed): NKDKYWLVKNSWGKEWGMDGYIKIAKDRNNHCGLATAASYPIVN
T3 sequence (P00787 129-333 limits assumed): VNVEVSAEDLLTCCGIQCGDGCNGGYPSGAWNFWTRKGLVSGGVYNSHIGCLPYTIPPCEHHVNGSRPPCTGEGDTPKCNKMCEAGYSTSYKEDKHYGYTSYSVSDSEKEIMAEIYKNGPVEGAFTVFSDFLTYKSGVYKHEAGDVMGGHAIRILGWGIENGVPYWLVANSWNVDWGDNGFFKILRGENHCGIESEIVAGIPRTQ
T3 sequence (P00787 80-126 limits assumed): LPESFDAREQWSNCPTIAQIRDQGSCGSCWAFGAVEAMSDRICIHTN

Compound `NCCCC[C@H](NC(=O)[C@H]1O[C@@H]1C(=O)N[C@@H](Cc1ccccc1)C(N)=O)C(=O)Nc1cccc2ccccc12` [Example 14, Nα-{L-3-trans-[(S)-1-carbamoyl-2-phenylethylcarbamoyl]oxirane-2-carbonyl}-L-lysine-1-naphthylamide hydrochloride] gave a B/L in test [1] above 667. In addition, the IC50 – broadly, the concentration needed to halve the response being measured – in test [1] was 15 nM; in test [2] it was above 10 µM; in test [3], above 10 µM.

`NCCCC[C@H](NC(=O)[C@H]1O[C@@H]1C(=O)NCCc1ccccc1)C(=O)Nc1cccc2ccccc12` [Example 2, Nα-[L-3-trans-(2-phenylethylcarbamoyl)oxirane-2-carbonyl]-L-lysine-1-naphthylamide hydrochloride]: in test [1], the B/L is reported as above 285. Also, the IC50 is 35 nM in test [1], above 10 µM in test [2] and above 10 µM in test [3].

For `NCCCC[C@H](NC(=O)[C@H]1O[C@@H]1C(=O)Nc1cccc2ccccc12)C(=O)Nc1cccc2ccccc12` [Example 30, Nα-[L-3-trans-(1-naphthylcarbamoyl)oxirane-2-carbonyl]-L-lysine-1-naphthylamide hydrochloride], the B/L in test [1] was determined as 94.4. Also, the IC50 was 72 nM in test [1], 6 µM in test [2] and 6.8 µM in test [3].

`CC(=O)NCCCC[C@H](NC(=O)[C@H]1O[C@@H]1C(=O)N[C@@H](Cc1ccccc1)C(=O)NCCc1ccccc1)C(=O)Nc1cccc2ccccc12` [Example 32, Nα-{L-3-trans-[(S)-1-(2-phenylethylcarbamoyl)-2-phenylethylcarbamoyl]oxirane-2-carbonyl}-Nε-acetyl-L-lysine-1-naphthylamide] yielded a B/L in test [1] of 17500. Moreover, the results for the IC50 in test [1], in test [2] and in test [3] were 0.04 nM, 4.8 µM and 7 µM, respectively.

Regarding `NCCCC[C@H](NC(=O)[C@H]1O[C@@H]1C(=O)N[C@@H](Cc1ccccc1)C(=O)NCc1ccccc1)C(=O)Nc1cccc2ccccc12` [Example 26, Nα-{L-3-trans-[(S)-1-benzylcarbamoyl-2-phenylethylcarbamoyl]oxirane-2-carbonyl}-L-lysine-1-naphthylamide hydrochloride], the B/L in test [1] is 7500. Besides, the IC50 in test [1] amounted to 0.4 nM; in test [2], 3.2 µM; in test [3] it was 3 µM.

In test [1], `COc1ccccc1NC(=O)[C@H](CCCCN)NC(=O)[C@H]1O[C@@H]1C(=O)N[C@@H](Cc1ccccc1)C(=O)NCCc1ccccc1` [Example 39, Nα-{L-3-trans-[(S)-1-(2-phenylethylcarbamoyl)-2-phenylethylcarbamoyl]oxirane-2-carbonyl}-L-lysine-2-methoxyanilide hydrochloride] showed a B/L of 7500 and an IC50 of 1.6 nM. Further, in test [3], the IC50 was 12 µM.

In test [1], `CCCNC(=O)[C@H](Cc1ccccc1)NC(=O)[C@H]1O[C@@H]1C(=O)N[C@@H](CCCCN)C(=O)Nc1ccccc1` [Example 59, Nα-{L-3-trans-[(S)-1-propylcarbamoyl-2-phenylethylcarbamoyl]oxirane-2-carbonyl}-L-lysine anilide hydrochloride] had a B/L above 3703. The IC50 is 2.7 nM in test [1] and above 10 µM in test [3].

Regarding `NCCCC[C@H](NC(=O)[C@H]1O[C@@H]1C(=O)N[C@@H](Cc1ccccc1)C(N)=O)C(=O)Nc1ccccc1` [Example 55, Nα-{L-3-trans-[(S)-1-carbamoyl-2-phenylethylcarbamoyl]oxirane-2-carbonyl}-Nε-L-lysine anilide hydrochloride], in test [1], the B/L amounted to 2444 and it took 18 nM to reach half-maximal inhibition (IC50). Moreover, the IC50 in test [3] came out at 44 µM.

The values above are taken from patent US5883121A, “Epoxysuccinamide derivative or salt thereof, and medicine comprising the same” (Taiho Pharmaceutical Co., Ltd., priority 1995, dated 1999).
